Source: the OligoGym collection
HELM strings list units from the 5' end as sugar, base in round brackets, then linkage (d deoxyribose, r ribose, m 2'-O-methyl, p phosphodiester). Strings are as the collection lists them; they lack the last nucleoside at the 3' end of the tested compound. [moe] = 2'-O-(2-methoxyethyl) (MOE); [sp] = phosphorothioate linkage; [m5C] = 5-methylcytosine

Molecular target: UBE3A-ATS
Assay: mouse, dose not given
Details: ASO

Row | Substance | 3 h FOB score [score 0-7]
1 | RNA1{[moe](G)[sp].[moe](G)p.[moe](T)p.[moe]([m5C])p.d(A)[sp].d(A)[sp].d([m5C])[sp].d([m5C])[sp].d(A)[sp].d(A)[sp].d(T)[sp].d(T)[sp].d(T)[sp].d(G)[sp].[moe]([m5C])p.[moe](T)p.[moe](A)p.[moe](T)[sp].[moe](T)}$$$$ (last 3' nucleoside missing) | 4.7
2 | RNA1{[moe](G)[sp].[moe]([m5C])p.[moe](A)p.[moe](T)p.[moe](T)p.d(G)[sp].d(G)[sp].d([m5C])[sp].d(T)[sp].d(T)[sp].d([m5C])[sp].d(A)[sp].d(T)[sp].d(A)[sp].d(T)[sp].[moe](T)p.[moe](T)p.[moe]([m5C])[sp].[moe](T)}$$$$ (last 3' nucleoside missing) | 1
3 | RNA1{[moe](G)[sp].[moe](T)p.[moe](G)p.[moe](A)p.[moe](G)p.d([m5C])[sp].d(T)[sp].d(T)[sp].d(T)[sp].d(A)[sp].d([m5C])[sp].d(T)[sp].d([m5C])[sp].d(T)[sp].d(G)[sp].[moe]([m5C])p.[moe](A)p.[moe](A)[sp].[moe](T)}$$$$ (last 3' nucleoside missing) | 1
4 | RNA1{[moe](A)[sp].[moe](T)p.[moe](G)p.[moe](T)p.[moe](A)p.d(T)[sp].d([m5C])[sp].d(A)[sp].d(G)[sp].d(G)[sp].d([m5C])[sp].d(A)[sp].d(A)[sp].d([m5C])[sp].d(A)[sp].[moe](G)p.[moe](A)p.[moe](A)[sp].[moe](T)}$$$$ (last 3' nucleoside missing) | 5
5 | RNA1{[moe](T)[sp].[moe](T)p.[moe](G)p.[moe](G)[sp].d(T)[sp].d([m5C])[sp].d(A)[sp].d(T)[sp].d([m5C])[sp].d(T)[sp].d([m5C])[sp].d(G)[sp].[moe](G)p.[moe](G)p.[moe](T)p.[moe](A)[sp].[moe](T)}$$$$ (last 3' nucleoside missing) | 2.3
6 | RNA1{[moe](G)[sp].[moe]([m5C])p.[moe](A)p.[moe](T)p.[moe](G)p.d(T)[sp].d(G)[sp].d(G)[sp].d(G)[sp].d([m5C])[sp].d([m5C])[sp].d(T)[sp].d([m5C])[sp].d(T)[sp].d(A)[sp].[moe](T)p.[moe](T)p.[moe](A)[sp].[moe](A)}$$$$ (last 3' nucleoside missing) | 4
7 | RNA1{[moe]([m5C])[sp].[moe](T)p.[moe](G)p.[moe](G)p.[moe](T)p.d(A)[sp].d(G)[sp].d(G)[sp].d(A)[sp].d(T)[sp].d([m5C])[sp].d(T)[sp].d(A)[sp].d(T)[sp].d(G)[sp].[moe](G)p.[moe]([m5C])p.[moe](A)[sp].[moe](G)}$$$$ (last 3' nucleoside missing) | 2.3
8 | RNA1{[moe](G)[sp].[moe](A)p.[moe](T)p.[moe]([m5C])[sp].d(A)[sp].d([m5C])[sp].d(A)[sp].d(T)[sp].d(T)[sp].d(A)[sp].d([m5C])[sp].d([m5C])[sp].[moe]([m5C])p.[moe](A)p.[moe](T)p.[moe]([m5C])[sp].[moe]([m5C])}$$$$ (last 3' nucleoside missing) | 0
9 | RNA1{[moe](G)[sp].[moe](T)p.[moe](A)p.[moe](T)p.[moe](A)p.d(T)[sp].d(A)[sp].d([m5C])[sp].d(T)[sp].d([m5C])[sp].d([m5C])[sp].d(A)[sp].d(G)[sp].d(G)[sp].d(T)[sp].[moe](T)p.[moe](G)p.[moe](T)[sp].[moe](G)}$$$$ (last 3' nucleoside missing) | 5.2
10 | RNA1{[moe](A)[sp].[moe](A)p.[moe](A)p.[moe]([m5C])p.d(G)[sp].d([m5C])[sp].d(A)[sp].d(A)[sp].d(T)[sp].d(G)[sp].d(T)[sp].d(A)[sp].d(T)[sp].d([m5C])[sp].[moe](A)p.[moe](G)p.[moe](G)p.[moe]([m5C])[sp].[moe](A)}$$$$ (last 3' nucleoside missing) | 2
11 | RNA1{[moe](G)[sp].[moe](A)p.[moe](G)p.[moe]([m5C])p.[moe](T)p.[moe](A)[sp].d(T)[sp].d([m5C])[sp].d(T)[sp].d(G)[sp].d(T)[sp].d(A)[sp].d([m5C])[sp].d(A)[sp].[moe](A)p.[moe](A)[sp].[moe](A)}$$$$ (last 3' nucleoside missing) | 4.7
12 | RNA1{[moe](A)[sp].[moe]([m5C])p.[moe](A)p.[moe]([m5C])p.[moe](T)p.d(T)[sp].d(T)[sp].d([m5C])[sp].d(A)[sp].d(T)[sp].d([m5C])[sp].d(A)[sp].d(G)[sp].d(T)[sp].d(T)[sp].[moe](A)p.[moe](G)p.[moe](T)[sp].[moe]([m5C])}$$$$ (last 3' nucleoside missing) | 1
13 | RNA1{[moe]([m5C])[sp].[moe](A)p.[moe](G)p.[moe](A)p.[moe]([m5C])p.d(T)[sp].d(T)[sp].d(A)[sp].d(T)[sp].d(T)[sp].d(G)[sp].d(A)[sp].d(G)[sp].d(G)[sp].d(A)[sp].[moe](T)p.[moe](G)p.[moe](G)[sp].[moe](T)}$$$$ (last 3' nucleoside missing) | 5.7
14 | RNA1{[moe](T)[sp].[moe]([m5C])p.[moe](A)p.[moe](T)p.[moe]([m5C])p.[moe](T)[sp].d([m5C])[sp].d(G)[sp].d(G)[sp].d(G)[sp].d(T)[sp].d(A)[sp].d(T)[sp].d(A)[sp].[moe](T)p.[moe](A)[sp].[moe](A)}$$$$ (last 3' nucleoside missing) | 2.3
15 | RNA1{[moe]([m5C])[sp].[moe](G)p.[moe](T)p.[moe](G)p.[moe](A)p.[moe](G)[sp].d([m5C])[sp].d(T)[sp].d(A)[sp].d(T)[sp].d([m5C])[sp].d(T)[sp].d(G)[sp].d(T)[sp].[moe](A)p.[moe]([m5C])[sp].[moe](A)}$$$$ (last 3' nucleoside missing) | 2
16 | RNA1{[moe]([m5C])[sp].[moe](T)p.[moe](G)p.[moe]([m5C])p.[moe](T)p.[moe]([m5C])p.d(A)[sp].d(G)[sp].d(T)[sp].d(T)[sp].d(A)[sp].d(G)[sp].d(G)[sp].d(T)[sp].d(T)[sp].d(A)[sp].[moe](G)p.[moe](T)[sp].[moe](G)}$$$$ (last 3' nucleoside missing) | 3
17 | RNA1{[moe](A)[sp].[moe](T)p.[moe](T)p.[moe](G)p.[moe](A)p.d([m5C])[sp].d(A)[sp].d([m5C])[sp].d([m5C])[sp].d(T)[sp].d([m5C])[sp].d([m5C])[sp].d(A)[sp].d(A)[sp].d([m5C])[sp].[moe](T)p.[moe](G)p.[moe](T)[sp].[moe](A)}$$$$ (last 3' nucleoside missing) | 0.7
18 | RNA1{[moe](G)[sp].[moe]([m5C])[sp].[moe]([m5C])[sp].[moe]([m5C])[sp].[moe](A)[sp].d(T)[sp].d(G)[sp].d(G)[sp].d(A)[sp].d(T)[sp].d(G)[sp].d(G)[sp].d(T)[sp].d(T)[sp].d(G)[sp].[moe](T)[sp].[moe]([m5C])[sp].[moe](A)[sp].[moe](A)}$$$$ (last 3' nucleoside missing) | 7
19 | RNA1{[moe]([m5C])[sp].[moe](G)p.[moe](T)p.[moe]([m5C])p.[moe](T)p.d(T)[sp].d([m5C])[sp].d([m5C])[sp].d([m5C])[sp].d(G)[sp].d([m5C])[sp].d(A)[sp].d([m5C])[sp].d([m5C])[sp].d(A)[sp].[moe](T)p.[moe](G)p.[moe]([m5C])[sp].[moe](A)}$$$$ (last 3' nucleoside missing) | 2
